Among the data in ChEMBL document CHEMBL1134688, “Synthesis, biological evaluation, and pharmacophore generation of new pyridazinone derivatives with affinity toward alpha(1)- and alpha(2)-adrenoceptors” (J Med Chem, 2001) are Ki and Ratio values, retold here.

Assay [1] has as its target T1, Adrenergic receptor alpha-1 (Rattus norvegicus, UniProt P15823+P23944+P43140).
T1 sequence (P15823 whole entry): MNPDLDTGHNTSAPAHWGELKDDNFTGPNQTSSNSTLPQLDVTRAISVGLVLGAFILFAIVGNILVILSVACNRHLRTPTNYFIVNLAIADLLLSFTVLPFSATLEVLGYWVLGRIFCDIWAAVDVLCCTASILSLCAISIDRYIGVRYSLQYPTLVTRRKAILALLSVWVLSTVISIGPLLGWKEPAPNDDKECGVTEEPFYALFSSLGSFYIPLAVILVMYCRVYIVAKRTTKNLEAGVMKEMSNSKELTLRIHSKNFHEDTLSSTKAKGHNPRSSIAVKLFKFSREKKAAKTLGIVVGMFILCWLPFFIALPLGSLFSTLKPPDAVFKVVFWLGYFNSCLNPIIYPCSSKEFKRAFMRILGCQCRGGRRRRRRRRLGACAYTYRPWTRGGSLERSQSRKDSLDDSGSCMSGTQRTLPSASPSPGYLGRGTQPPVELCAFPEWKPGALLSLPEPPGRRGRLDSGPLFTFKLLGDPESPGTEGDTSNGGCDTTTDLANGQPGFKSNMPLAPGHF
T1 sequence (P23944 whole entry): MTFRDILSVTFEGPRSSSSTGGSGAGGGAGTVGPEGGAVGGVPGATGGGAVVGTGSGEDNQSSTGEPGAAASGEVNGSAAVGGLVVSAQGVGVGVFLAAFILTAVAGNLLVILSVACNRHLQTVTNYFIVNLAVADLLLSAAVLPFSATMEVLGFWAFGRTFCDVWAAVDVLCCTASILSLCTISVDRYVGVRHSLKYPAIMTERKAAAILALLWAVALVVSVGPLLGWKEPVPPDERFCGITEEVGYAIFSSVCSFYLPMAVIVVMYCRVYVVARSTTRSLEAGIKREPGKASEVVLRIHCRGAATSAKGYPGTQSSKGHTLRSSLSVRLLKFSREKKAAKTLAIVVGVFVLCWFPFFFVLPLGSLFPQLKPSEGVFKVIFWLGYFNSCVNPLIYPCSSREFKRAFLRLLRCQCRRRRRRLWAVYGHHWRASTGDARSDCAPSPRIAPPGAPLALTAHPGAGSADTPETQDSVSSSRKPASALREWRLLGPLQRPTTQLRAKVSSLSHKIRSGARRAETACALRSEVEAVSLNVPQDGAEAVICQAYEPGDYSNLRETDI
T1 sequence (P43140 whole entry): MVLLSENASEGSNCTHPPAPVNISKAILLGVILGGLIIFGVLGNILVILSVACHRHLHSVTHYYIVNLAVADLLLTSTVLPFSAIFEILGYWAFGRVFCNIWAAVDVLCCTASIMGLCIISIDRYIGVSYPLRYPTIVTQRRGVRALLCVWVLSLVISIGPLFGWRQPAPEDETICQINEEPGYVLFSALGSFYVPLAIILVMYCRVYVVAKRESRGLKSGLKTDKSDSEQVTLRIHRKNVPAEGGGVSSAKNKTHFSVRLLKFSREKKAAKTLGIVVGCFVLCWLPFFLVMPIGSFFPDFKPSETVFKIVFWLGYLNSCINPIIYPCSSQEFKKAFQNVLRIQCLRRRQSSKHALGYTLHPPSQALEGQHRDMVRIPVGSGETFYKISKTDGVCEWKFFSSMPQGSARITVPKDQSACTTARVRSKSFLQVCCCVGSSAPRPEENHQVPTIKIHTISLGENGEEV
Kind of assay: Binding affinity towards alpha-1 adrenergic receptor in rat cortex membrane using [3H]-prazosin radioligand. It is filed as cell membranes.

The target of assay [2] is Adrenergic receptor alpha-2 (Rattus norvegicus) (UniProt P22086+P19328+P22909). As to the kind of experiment: Ratio of binding affinity towards Alpha-2 and alpha-1 adrenergic receptor. It is filed as protein assay.
Assay [3] has as its target T2, Adrenergic receptor alpha-2 (Rattus norvegicus, UniProt P22086+P19328+P22909).
T2 sequence (P22086 whole entry): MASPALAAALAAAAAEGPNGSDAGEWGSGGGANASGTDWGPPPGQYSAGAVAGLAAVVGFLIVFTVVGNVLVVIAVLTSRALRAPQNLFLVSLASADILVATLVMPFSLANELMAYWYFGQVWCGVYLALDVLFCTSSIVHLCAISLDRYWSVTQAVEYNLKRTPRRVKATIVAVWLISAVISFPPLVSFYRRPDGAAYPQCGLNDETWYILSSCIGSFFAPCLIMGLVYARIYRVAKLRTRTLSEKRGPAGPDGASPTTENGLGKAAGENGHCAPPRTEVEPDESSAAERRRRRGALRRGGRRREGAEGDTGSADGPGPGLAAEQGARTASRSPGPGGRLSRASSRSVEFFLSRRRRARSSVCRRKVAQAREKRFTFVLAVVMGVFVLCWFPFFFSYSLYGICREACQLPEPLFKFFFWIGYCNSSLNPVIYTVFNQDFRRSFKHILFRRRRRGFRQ
T2 sequence (P19328 whole entry): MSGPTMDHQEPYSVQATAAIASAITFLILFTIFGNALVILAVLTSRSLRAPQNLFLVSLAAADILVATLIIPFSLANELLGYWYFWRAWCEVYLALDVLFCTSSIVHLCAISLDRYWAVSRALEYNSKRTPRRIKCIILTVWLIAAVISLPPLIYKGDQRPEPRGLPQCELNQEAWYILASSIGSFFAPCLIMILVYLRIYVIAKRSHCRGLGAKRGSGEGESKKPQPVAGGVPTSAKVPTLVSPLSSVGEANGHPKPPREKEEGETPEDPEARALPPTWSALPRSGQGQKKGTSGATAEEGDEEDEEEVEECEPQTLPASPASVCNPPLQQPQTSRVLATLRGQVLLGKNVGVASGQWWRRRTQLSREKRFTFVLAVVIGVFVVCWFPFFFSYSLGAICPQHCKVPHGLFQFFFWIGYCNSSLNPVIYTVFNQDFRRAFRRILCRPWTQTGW
T2 sequence (P22909 whole entry): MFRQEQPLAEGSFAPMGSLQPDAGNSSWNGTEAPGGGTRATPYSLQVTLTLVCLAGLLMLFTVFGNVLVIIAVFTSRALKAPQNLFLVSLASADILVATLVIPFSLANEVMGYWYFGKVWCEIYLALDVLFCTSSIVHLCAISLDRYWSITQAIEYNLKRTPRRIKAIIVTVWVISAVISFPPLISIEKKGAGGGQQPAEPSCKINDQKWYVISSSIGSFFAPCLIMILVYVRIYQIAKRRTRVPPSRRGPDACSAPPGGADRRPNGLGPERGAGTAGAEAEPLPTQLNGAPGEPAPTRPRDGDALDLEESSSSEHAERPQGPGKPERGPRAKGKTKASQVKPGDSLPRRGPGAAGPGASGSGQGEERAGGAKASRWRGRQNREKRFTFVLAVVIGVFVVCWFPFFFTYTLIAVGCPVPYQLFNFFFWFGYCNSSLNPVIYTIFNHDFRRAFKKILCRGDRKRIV
Kind of assay: Binding affinity towards alpha-2 adrenergic receptor in rat cortex membrane using [3H]rauwolscine radioligand. It is filed as cell membranes.

Consider `COc1ccccc1OCCN1CCN(c2cnn(CCCCN3CCN(c4ccccc4OC)CC3)c(=O)c2Cl)CC1`, for which the inhibition constant (Ki) (in general, the dissociation constant of the complex between target and ligand, obtained from inhibition or displacement) in assay [1] is 4.3 nM; in assay [3] it was 230 nM. In addition, in assay [2], the Ratio was determined as 53.

As for `COc1ccccc1OCCN1CCN(c2cnn(CCCCCN3CCN(c4ccccc4OC)CC3)c(=O)c2Cl)CC1`, the inhibition constant Ki in assay [1] was 3.9 nM; in assay [3], 15 nM. For the same compound, the Ratio in assay [2] turned out to be 3.8.

`COc1ccccc1OCCN1CCN(c2ccc(=O)n(CCCN3CCN(c4ccccc4OC)CC3)n2)CC1`: the inhibition constant Ki in assay [1] was determined as 7.3 nM; in assay [3] it was 254 nM. In addition, the Ratio in assay [2] came out at 34.8.

Turning to `COc1ccccc1OCCN1CCN(c2ccc(=O)n(CCN3CCN(c4ccccc4OC)CC3)n2)CC1`, the figures for the inhibition constant Ki in assay [1] and in assay [3] were 38 nM and 1261 nM, respectively. Further, in assay [2], the Ratio was 33.2.

For `COc1ccccc1OCCN1CCN(c2ccc(=O)n(CCCCCCCN3CCN(c4ccccc4OC)CC3)n2)CC1`, the Ki in assay [1] was determined as 2.3 nM; in assay [3], 45.8 nM. In addition, in assay [2], the Ratio was found to be 20.

Regarding `COc1ccccc1OCCN1CCN(c2cnn(CCCCCCN3CCN(c4ccccc4OC)CC3)c(=O)c2Cl)CC1`, the inhibition constant Ki turned out to be 1.5 nM in assay [1] and 3.5 nM in assay [3]. Further, the Ratio in assay [2] was 2.3.

Turning to `COc1ccccc1OCCN1CCN(c2ccc(=O)n(CCCCN3CCN(c4ccccc4Cl)CC3)n2)CC1`, the Ki in assay [1] turned out to be 0.8 nM; in assay [3], 69.4 nM. Further, the Ratio in assay [2] was 86.7.

Regarding `COc1ccccc1N1CCN(CCn2ncc(N3CCN(C(=O)c4ccco4)CC3)c(Cl)c2=O)CC1`, the Ki in assay [1] was found to be 33 nM; in assay [3], 440 nM. The Ratio in assay [2] came to 13.3.

In the case of `O=C(c1ccco1)N1CCN(c2cnn(CCCCCN3CCN(c4ccccc4Cl)CC3)c(=O)c2Cl)CC1`, the Ki in assay [1] is 3.6 nM; in assay [3], 18 nM. The Ratio in assay [2] is 5.

Turning to `COc1ccccc1N1CCN(CCCCCn2ncc(N3CCN(C(=O)c4ccco4)CC3)c(Cl)c2=O)CC1`, the Ki in assay [1] amounted to 1.9 nM; in assay [3], 23.3 nM. The Ratio in assay [2] stood at 12.3.

Regarding `O=C(c1ccco1)N1CCN(c2ccc(=O)n(CCCCN3CCN(c4ccccc4Cl)CC3)n2)CC1`, the figures for the inhibitory constant (Ki) in assay [1] and in assay [3] were 7.9 nM and 24 nM, respectively. For the same compound, the Ratio in assay [2] turned out to be 3.

In the case of `COc1ccccc1N1CCN(CCCn2nc(N3CCN(C(=O)c4ccco4)CC3)ccc2=O)CC1`, the inhibition constant Ki in assay [1] stood at 64.5 nM; in assay [3], 631 nM. Also, the Ratio in assay [2] is 9.8.

As to `COc1ccccc1N1CCN(CCCCCCn2nc(N3CCN(C(=O)c4ccco4)CC3)ccc2=O)CC1`, the inhibitory constant (Ki) in assay [1] is recorded as 17.8 nM; in assay [3], 100 nM. The Ratio in assay [2] came out at 5.6.

`COc1ccc(Cl)cc1N1CCN(CCCn2nc(-c3ccccc3)c3c(C)onc3c2=O)CC1` had an inhibition constant (Ki) in assay [1] of 7.9 nM.

With `O=C(c1ccco1)N1CCN(c2ccc(=O)n(CCN3CCN(c4ccccc4Cl)CC3)n2)CC1`, the inhibition constant Ki in assay [1] amounted to 34 nM; in assay [3], 52.6 nM. Further, the Ratio in assay [2] is 1.5.

Regarding `COc1ccccc1OCCN1CCN(c2ccc(=O)n(CCCCCCCN3CCN(c4ccccc4Cl)CC3)n2)CC1`, the inhibition constant Ki in assay [1] was determined as 15 nM; in assay [3], 139 nM. Moreover, the Ratio in assay [2] is 9.3.

For the compound `COc1ccccc1OCCN1CCN(c2cnn(CCCCCCCN3CCN(c4ccccc4Cl)CC3)c(=O)c2Cl)CC1`, the results for the inhibition constant (Ki) in assay [1] and in assay [3] were 2.7 nM and 7.4 nM, respectively. Also, the Ratio in assay [2] was determined as 2.7.

`COc1ccc(Cl)cc1N1CCN(CCn2nc(-c3ccccc3)c3c(C)onc3c2=O)CC1` had an inhibitory constant (Ki) in assay [1] of 15.6 nM.

Take `COc1ccccc1OCCN1CCN(c2ccc(=O)n(CCCCCN3CCN(c4ccccc4OC)CC3)n2)CC1`: the Ki in assay [1] amounted to 12.9 nM; in assay [3], 69.8 nM. The Ratio in assay [2] was 5.4.

As to `COc1ccccc1OCCN1CCN(c2cnn(CCN3CCN(c4ccccc4OC)CC3)c(=O)c2Cl)CC1`, the values for the inhibition constant (Ki) in assay [1] and in assay [3] were 16 nM and 409 nM, respectively. The Ratio in assay [2] amounted to 25.5.

For the compound `O=C(c1ccco1)N1CCN(c2ccc(=O)n(CCCN3CCN(c4ccccc4Cl)CC3)n2)CC1`, the results for the inhibition constant (Ki) in assay [1] and in assay [3] were 12.8 nM and 260 nM, respectively. Besides, the Ratio in assay [2] stood at 20.3.

As for `COc1ccccc1OCCN1CCN(c2cnn(CCCCCN3CCN(c4ccccc4Cl)CC3)c(=O)c2Cl)CC1`, the Ki in assay [1] turned out to be 4.5 nM; in assay [3], 29 nM. Moreover, the Ratio in assay [2] is 6.4.

For the compound `COc1ccccc1OCCN1CCN(c2cnn(CCCCCCCCN3CCN(c4ccccc4OC)CC3)c(=O)c2Cl)CC1`, the values for the inhibitory constant (Ki) in assay [1] and in assay [3] were 3.5 nM and 22.7 nM, respectively. Moreover, the Ratio in assay [2] was 6.5.

As to `COc1ccccc1N1CCN(CCn2nc(-c3ccccc3)c3c(C)onc3c2=O)CC1`, the Ki in assay [1] is recorded as 147 nM.

As for `COc1ccccc1N1CCN(Cn2nc(-c3ccccc3)c(C(C)=O)c(N)c2=O)CC1`, the Ki in assay [1] is 2395 nM.

In assay [1], `COc1ccccc1N1CCN(CC(=O)c2c(-c3ccccc3)nn(C)c(=O)c2N)CC1` displayed an inhibition constant (Ki) of 516 nM.

Consider `COc1ccccc1N1CCN(CCCn2nc(-c3ccccc3)c(C(C)=O)c(N)c2=O)CC1`, for which the inhibition constant (Ki) in assay [1] was 46.7 nM.

Consider `COc1ccccc1N1CCN(CCn2nc(N3CCN(C(=O)c4ccco4)CC3)ccc2=O)CC1`, for which the Ki in assay [1] is recorded as 94.5 nM.

For `COc1ccc(Cl)cc1N1CCN(CCn2nc(-c3ccccc3)c(C(C)=O)c(N)c2=O)CC1`, the inhibition constant (Ki) in assay [1] was 42.7 nM.

Take `COc1ccccc1N1CCN(Cn2nc(-c3ccccc3)c3c(C)onc3c2=O)CC1`: the Ki in assay [1] came out at 2308 nM.
